Values of other authors, collected in patent US9788539B2, “Platelet protection solution having beta-galactosidase and sialidase inhibitors” (Velico Medical, Inc., priority 2011, dated 2017).

Biological target: viral, bacterial and mammalian sialidases
Conditions: cited from earlier work

CC(=O)NC1C(O)C=C(C(=O)O)OC1C(O)C(O)CO (stereo not shown) [DANA]
Ki: low μM range
